Residues, ends and D or L forms follow the SMILES beside them. *: point of attachment. Cbz = O=C(OCc1ccccc1)*; CH2F = FC*
Columns and labels:
apoptotic Jurkat cells = assay: Confocal immunofluorescence microscopy of scFv and annexin V binding to apoptotic Jurkat cells; type: cell-based
Procedure: (§1) Jurkat cells were harvested from culture and resuspended at a density of 10^6 /ml in RPMI 1640 containing 10% fetal bovine'serum (FBS). Apoptosis was induced for 12 hours with 1.0 μM staurosporine (Sigma Chemical Co. of St. Louis, Mo.), 2.0 μM camptothecin (Sigma), or 2.0 μg/ml anti-Fas antibody (clone 7C11; Beckman Coulter Inc. of Brea, Calif.). To inhibit apoptosis, parallel cultures were pre-incubated for 2 hours with 20 μM z-Val-Ala-Asp(Ome)-fluoromethylketone (z-VAD(Ome)-FMK) (Enzyme System Products of Livermore, Calif.). To inhibit membrane blebbing, parallel cultures were pre-incubated for 2 hours with 10 μM Y-27632 (Tocris of Ballwin, Mo.). At the end of the incubation period, 5×10^5 cells were aliquoted into tubes and stained for flow cytometry or confocal microscopy.
Cells were washed with HBSS and fixed with ice-cold 4% paraformaldehyde for 10 minutes. […] After incubation with the scFv, cells were washed once with HBSS/FBS and incubated with biotinylated annexin V (BD Biosciences) for 15 minutes on ice. Cells were then washed twice with HBSS/FBS and stained with streptavidin-conjugated Alexaflour 488 (Molecular Probes), Rhodamine Red-conjugated human serum IgG (Jackson Immunoresearch Laboratories) and the nucleic acid dye TO-PRO-3 (Molecular Probes). Following staining for 15 minutes on ice, cells were washed with HBSS/FBS and mounted onto poly-L-lysine-coated glass slides for viewing with a Zeiss LSM 510 laser scanning microscope (Carl Zeiss, Inc. of Thorwood, N.Y.).
Cells were washed with HBSS and fixed with ice-cold 4% paraformaldehyde for 10 minutes. […] After incubation with the scFv, cells were washed once with HBSS/FBS and incubated with biotinylated annexin V (BD Biosciences) for 15 minutes on ice. Cells were washed twice with HBSS/FBS and stained with streptavidin-conjugated Alexaflour 488 (Molecular Probes), Rhodamine Red-conjugated human serum IgG (Jackson Immunoresearch Laboratories) and the nucleic acid dye TO-PRO-3 (Molecular Probes). After a 15 minute incubation on ice, cells were washed with HBSS/FBS and mounted onto poly-L-lysine-coated glass slides for viewing with a Zeiss LSM 510 laser scanning microscope (Carl Zeiss Inc., Thorwood, N.Y.).

Jurkat cells = assay: Flow cytometry of annexin V and scFv binding to Jurkat cells treated with staurosporine, camptothecin or anti-Fas (12 hr); type: cell-based
Procedure: as §1
Cells were washed with 4.0 ml of ice-cold Hanks Balanced Salt Solution (Mediatech, Herndon, Va.) containing 1.0 mM CaCl2, 3% FBS, and 0.02% NaN3 (HBSS/FBS). […] 30,000 events were examined per sample on a FACSCalibur (BD Biosciences). The staining profiles were analyzed using FLOWJO™ software (Treestar, Inc. of San Carlos, Calif.).

Compound: C[C@@H](N)[C@H]1CC[C@H](C(=O)Nc2ccncc2)CC1 [Y-27632]
- effect on binding of annexin V (apoptotic Jurkat cells): did not affect
- blebbing and nuclear fragmentation (apoptotic Jurkat cells; anti-Fas treated cells, 10 μM): inhibited
- effect on binding of the D56R/S76R scFv (apoptotic Jurkat cells; anti-Fas treated cells, 10 μM): greatly reduced

Compound: CC[C@@]1(O)C(=O)OCc2c1cc1n(c2=O)Cc2cc3ccccc3nc2-1 [camptothecin]
- cells observed to bind annexin V (Jurkat cells; 12 hr incubation with the apoptotic stimulus): Approximately 29%

Compound: COC(=O)C[C@H](NC(=O)[C@H](C)NC(=O)[C@@H](NC(=O)OCc1ccccc1)C(C)C)C(=O)CF [z-VAD(OMe)-FMK, z-Val-Ala-Asp(Ome)-fluoromethylketone] (Cbz-Val-Ala-Asp(OMe)-CH2F)
- effect of pretreatment on staining of cells (apoptotic Jurkat cells; cells treated with camptothecin or anti-Fas antibody): greatly reduced
- effect of pretreatment on annexin V and scFv binding (apoptotic Jurkat cells; cells treated with staurosporine): reduces both annexin V and scFv binding to background levels
- effect of pretreatment on binding of the D56R/S76R scFv (Jurkat cells; 20 μM, 2 hours pre-incubation): largely eliminated
- effect of pretreatment on staining with annexin V (Jurkat cells; 20 μM, 2 hours pre-incubation): decreased to near-background levels

Reference: patent US20030138419A1, “Recombinant antibody fusion proteins and methods for detection of apoptotic cells” (The University of Tennessee Research Corporation, priority 2001, published 2003)
